Results on 21 compounds are retold here after ChEMBL document CHEMBL3045093, “Synthesis, spectral correlation and insect antifeedant activities of some 2-benzimidazole chalcones” (J Saudi Chem Soc, 2013).

The subject of experiment [1] is Achaea janata. Kind of experiment: Antifeedant activity against 4th instar larvae of Achaea janata in […] leaves assessed as total leaf disc consumed at 200 ppm after 24 hrs by leaf disc bioassay. It counts as functional, organism-based.
Experiment [2] concerns Achaea janata. The experiment in a line: Antifeedant activity against 4th instar larvae of Achaea janata in […] leaves assessed as total leaf disc consumed at 150 ppm after 24 hrs by leaf disc bioassay. It counts as functional, organism-based.

Molecules are shown by their SMILES. Calls of active or inactive are those of the source. No cut-off for these calls is given here.

In the case of `O=C(/C=C/c1ccc(Cl)cc1)c1nc2ccccc2[nH]1`, in experiment [1], the result was Active.

As for `O=C(/C=C/c1cccc(Br)c1)c1nc2ccccc2[nH]1`, the result in experiment [1] was Active.

In the case of `O=C(/C=C/c1ccc([N+](=O)[O-])cc1)c1nc2ccccc2[nH]1`, the outcome in experiment [1] was Active.

Take `Cc1ccc(/C=C/C(=O)c2nc3ccccc3[nH]2)cc1`: the result in experiment [1] was Active.

As for `O=C(/C=C/c1ccc(F)cc1)c1nc2ccccc2[nH]1`, in experiment [1], the result was Active.

As to `Cc1ccccc1/C=C/C(=O)c1nc2ccccc2[nH]1`, the result in experiment [1] was Active.

Turning to `O=C(/C=C/c1ccc(O)cc1)c1nc2ccccc2[nH]1`, the outcome in experiment [1] was Active.

Consider `O=C(/C=C/c1ccccc1Br)c1nc2ccccc2[nH]1`, for which the result in experiment [1] was Active.

In the case of `CN(C)c1ccc(/C=C/C(=O)c2nc3ccccc3[nH]2)cc1`, the outcome in experiment [1] was Active.

Regarding `Cc1cccc(/C=C/C(=O)c2nc3ccccc3[nH]2)c1`, in experiment [1], the result was Active.

In the case of `O=C(/C=C/c1cccc([N+](=O)[O-])c1)c1nc2ccccc2[nH]1`, in experiment [1], the result was Active.

As to `O=C(/C=C/c1ccc(Br)cc1)c1nc2ccccc2[nH]1`, the outcome in experiment [2] and in experiment [1] was Active.

With `O=C(/C=C/c1ccccc1Cl)c1nc2ccccc2[nH]1`, the result in experiment [1] was Active.

For `O=C(/C=C/c1ccccc1O)c1nc2ccccc2[nH]1`, in experiment [1], the outcome was Active.

On to `O=C(/C=C/c1ccccc1)c1nc2ccccc2[nH]1`, for which the outcome in experiment [1] was Active.

Consider `O=C(/C=C/c1cccc(O)c1)c1nc2ccccc2[nH]1`, for which, in experiment [1], the outcome was Active.

In the case of `COc1ccccc1/C=C/C(=O)c1nc2ccccc2[nH]1`, in experiment [1], the outcome was Active.

Turning to `COc1ccc(/C=C/C(=O)c2nc3ccccc3[nH]2)cc1`, the result in experiment [1] was Active.

As for `COc1cccc(/C=C/C(=O)c2nc3ccccc3[nH]2)c1`, in experiment [1], the outcome was Active.

In the case of `O=C(/C=C/c1ccccc1[N+](=O)[O-])c1nc2ccccc2[nH]1`, the result in experiment [1] was Active.

Consider `O=C(/C=C/c1cccc(Cl)c1)c1nc2ccccc2[nH]1`, for which the result in experiment [1] was Active.
